The results in this text go back to ChEMBL document CHEMBL1201862, “PubChem BioAssay data set” (2004).

Active and inactive are the calls of the source. Rule as the data show it, for most assays here: actives have a measured EC50 and inactives only a lower limit. Bounds are passed on as bounds.

The nature of assay [1]: Luminescence Cell-Based Dose Confirmation HTS to Identify Activators of 5'UTR Stem-Loop Driven Alpha-Synuclein mRNA Translation in H4 Neuroglioblastoma Cells. [Related pubchem assays: 1829 (Project Summary), 1814 (Primary HTS)]. The format is functional.
Another assay has as its system H4. The assay can be described thus: Luminescence Cell-Based Dose Response HTS to Identify Activators of 5'UTR Stem-Loop Driven Prion Protein mRNA Translation in H4 Neuroglioblastoma Cells. [Related pubchem assays: 1829 (Project Summary), 1814 (Primary HTS)]. The format is functional. As to conditions: Homo sapiens.
A short description of assay [2]: Luminescence Cell-Based Dose Response HTS to Identify Activators of Luciferase Translation or Activity in H4 […] Cells. [Related pubchem assays: 1829 (Project Summary), 1814 (Primary HTS)]. The format is functional.
Assay [3] concerns the target T1, Corticotropin-releasing factor receptor 2/Corticotropin-releasing factor-binding protein (Homo sapiens, UniProt P24387+Q13324).
T1 sequence (Q13324 whole entry): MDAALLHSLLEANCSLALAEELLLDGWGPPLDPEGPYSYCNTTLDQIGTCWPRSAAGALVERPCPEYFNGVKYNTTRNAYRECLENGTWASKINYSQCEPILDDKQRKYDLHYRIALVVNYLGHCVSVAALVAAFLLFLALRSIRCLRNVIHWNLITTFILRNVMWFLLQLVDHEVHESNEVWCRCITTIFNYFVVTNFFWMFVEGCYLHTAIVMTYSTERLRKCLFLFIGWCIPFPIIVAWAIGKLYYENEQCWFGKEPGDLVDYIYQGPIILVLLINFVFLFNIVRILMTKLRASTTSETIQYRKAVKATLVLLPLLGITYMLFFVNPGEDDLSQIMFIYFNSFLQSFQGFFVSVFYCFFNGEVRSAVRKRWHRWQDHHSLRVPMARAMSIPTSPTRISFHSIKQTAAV
T1 sequence (P24387 whole entry): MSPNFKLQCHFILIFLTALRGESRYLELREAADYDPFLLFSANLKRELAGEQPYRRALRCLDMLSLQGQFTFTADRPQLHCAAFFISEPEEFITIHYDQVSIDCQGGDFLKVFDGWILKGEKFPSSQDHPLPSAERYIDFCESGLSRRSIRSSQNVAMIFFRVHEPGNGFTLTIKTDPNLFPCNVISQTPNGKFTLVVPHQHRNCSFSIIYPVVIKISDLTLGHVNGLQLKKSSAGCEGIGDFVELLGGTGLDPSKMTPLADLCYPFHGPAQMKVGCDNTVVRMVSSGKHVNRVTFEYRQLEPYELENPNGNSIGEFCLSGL
Put plainly: activators of CRF receptor 2 with binding protein – uHTS hits, confirmation (AID 602473). The format is functional. The note with it: read-out: EC50_Mean.

The target in assay [4] is T1, Corticotropin-releasing factor receptor 2/Corticotropin-releasing factor-binding protein. Put plainly: Dose Response confirmation of uHTS hits for small molecule antagonists of the CRF-binding protein and CRF-R2 receptor complex. As to conditions: read-out: IC50_Mean. The format is functional.
Assay [5] has as its target T2, RNA-binding protein pos-1 (Caenorhabditis elegans, UniProt G5EF15).
T2 sequence (G5EF15 whole entry): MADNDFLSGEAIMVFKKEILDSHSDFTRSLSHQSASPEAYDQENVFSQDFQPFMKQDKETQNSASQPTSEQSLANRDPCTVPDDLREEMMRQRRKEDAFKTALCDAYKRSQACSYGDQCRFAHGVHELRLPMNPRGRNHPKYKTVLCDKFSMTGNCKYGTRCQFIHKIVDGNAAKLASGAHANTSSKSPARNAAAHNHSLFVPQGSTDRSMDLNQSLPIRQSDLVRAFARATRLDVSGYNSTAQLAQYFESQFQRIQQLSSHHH
The assay can be described thus: disruptors of C. elegans POS-1 RNA interaction – biochemical, fluorescence polarization, dose response (AID 1964).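 Also: purified POS-1 fused to maltose binding protein made in E. coli; potency of compounds blocking POS-1 binding to fluorescent RNA.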

The target in assay [6] is T3, Zinc finger protein mex-5 (Caenorhabditis elegans, UniProt Q9XUB2).
T3 sequence (Q9XUB2 whole entry): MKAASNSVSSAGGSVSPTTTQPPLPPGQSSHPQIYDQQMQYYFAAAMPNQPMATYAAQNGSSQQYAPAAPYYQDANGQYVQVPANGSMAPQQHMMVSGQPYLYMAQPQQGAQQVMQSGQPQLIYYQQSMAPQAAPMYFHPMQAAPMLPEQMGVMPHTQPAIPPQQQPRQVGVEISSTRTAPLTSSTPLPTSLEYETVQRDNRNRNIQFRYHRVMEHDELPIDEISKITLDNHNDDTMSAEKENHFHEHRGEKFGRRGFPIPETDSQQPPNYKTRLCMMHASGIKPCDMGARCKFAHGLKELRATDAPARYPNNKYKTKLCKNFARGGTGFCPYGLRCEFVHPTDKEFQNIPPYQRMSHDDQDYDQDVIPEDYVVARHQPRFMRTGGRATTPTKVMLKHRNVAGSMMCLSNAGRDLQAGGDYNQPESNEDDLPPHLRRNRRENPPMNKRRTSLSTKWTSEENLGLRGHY
The assay can be described thus: potency of MEX-5 RNA-binding blockers – biochemical, C. elegans, fluorescence polarization, dose response (AID 1960).

Assay [7] in a line: fluconazole-exposed Candida albicans growth modulators – fluorescence, retest, confirmation (AID 2467). Type of assay: functional, cell-based.
Assay [8] can be described thus: NIH-3T3 fibroblast cytotoxicity, dose response, cytotoxicity control, cell-based, fluorescence, Alamar Blue, secondary assay (AID 2327).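 Also: NIH-3T3 mouse fibroblasts cultured with fluconazole at 8 µg/mL.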 Type of assay: functional.
The test system of assay [9] is Streptococcus sp. 'group A'. The assay can be described thus: Streptococcus pyogenes SK(-)GAS viability under kanamycin – luminescence, BacTiterGlo, confirmation, counter-screen for streptokinase expression inhibitor project, dose response (AID 1900). Type of assay: functional, organism-based.
Assay [10] can be described thus: NIH3T3 cell viability loss – ATP luminescence, mouse fibroblasts, counter-screen, dose response (AID 2010).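 Also: cells exposed to compound for about 90 hours before reading.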 Type of assay: functional, cell-based.
A further assay has as its system Streptococcus. The assay can be described thus: GAS UMAA2166 growth inhibition – luminescence, BacTiterGlo, counter-screen for streptokinase expression inhibitor project, dose response (AID 1915).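 Also: potency for reduction of bacterial viability or growth.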 The format is functional, organism-based.
Assay [11] can be described thus: Trypanosoma cruzi growth suppression in host cells – NIH3T3 host cells, beta-gal luminescence, confirmation (AID 2044).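 Also: intracellular parasites grown in NIH/3T3 mouse fibroblasts as host cells; luminescent beta-galactosidase reporter signal from transgenic T. cruzi replicating inside host cells; inhibitors lower the luminescence signal.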 Type of assay: functional, cell-based.
The next assay concerns the target T4, Streptokinase A (Streptococcus pyogenes serotype M1, UniProt P10520).
T4 sequence (P10520 whole entry): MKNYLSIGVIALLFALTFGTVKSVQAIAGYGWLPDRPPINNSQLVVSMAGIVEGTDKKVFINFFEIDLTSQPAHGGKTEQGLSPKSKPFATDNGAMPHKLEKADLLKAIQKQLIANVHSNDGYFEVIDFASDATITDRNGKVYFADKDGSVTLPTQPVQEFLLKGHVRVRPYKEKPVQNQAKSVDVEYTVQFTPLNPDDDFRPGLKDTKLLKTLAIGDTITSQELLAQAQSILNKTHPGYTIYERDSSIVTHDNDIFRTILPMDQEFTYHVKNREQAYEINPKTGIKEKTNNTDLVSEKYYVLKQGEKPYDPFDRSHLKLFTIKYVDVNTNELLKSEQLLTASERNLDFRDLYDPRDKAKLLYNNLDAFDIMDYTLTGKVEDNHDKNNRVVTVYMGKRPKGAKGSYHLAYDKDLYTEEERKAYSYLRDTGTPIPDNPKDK
Put plainly: viability-normalized secreted streptokinase activity reduction – plasminogen activation absorbance, OD405, dose response (AID 1914).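 Also: secreted streptokinase activity via plasminogen activation per viability signal from cell pellet.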 Type of assay: functional, Streptococcus pyogenes M1 GAS.

Consider `O=C(c1cn(-c2ccc(Cl)c(Cl)c2)nn1)C1CC1`, for which the EC50 in assay [1] was 7.57 µM (active); in the assay with H4, > 60 µM (not active); in [2], 10.6 µM (active).
For `O=C(Nc1ccc(N2CCCCCC2)cc1)c1ccccc1Cl`, in [3], the EC50 is > 53 µM (inactive). For the same compound, in [4], the IC50 was > 47.1 µM (inactive).
As for `N#CCC(N)=C(C#N)C#N`, the EC50 in assay [5] is 54.9 µM (active); in assay [6] it was 169 µM (active).
With `CCOc1ccc2c(c1)=C(NN1C(=O)c3ccccc3C1=O)C(=O)N=2`, the EC50 in assay [3] was > 53 µM (inactive). In assay [4], the IC50 was > 47.1 µM (inactive).
As to `COc1ccc(-c2cc3ccc(OCC(N)=O)cc3oc2=O)cc1OC`, the EC50 in assay [5] and in assay [6] was > 300 µM (not active) throughout.
As to `Cc1nc2ccc(NC(=O)CCC3CCCC3)cc2s1`, the results for the EC50 (in assay [1]; in the assay with H4; in [2]) were 10.7 µM (active), 15.2 µM (active) and 28.8 µM (active), respectively.
The corresponding values for `CCN1C(=O)C(=C2C=C(C)OC(C)=C2)C(=O)N(CC)C1=S` are > 120 µM (not active), > 120 µM (not active) and > 120 µM (not active).
Regarding `O=S(=O)(c1cccc(-c2csc(-c3cccnc3)n2)c1)N1CCOCC1`, the EC50 in assay [5] and in [6] was > 300 µM (not active) each time.
Consider `CCOC(=O)c1cc(C(=O)OCC)cc(-n2c(C)cc(C(=O)CN3CCOCC3)c2C)c1`, for which the EC50 in [5] and in assay [6] was > 300 µM (not active) each time.
As for `Cn1c(C(=O)NC2CCCCC2)cc2c(=O)n3ccccc3nc21`, the EC50 was > 120 µM (not active) in assay [1], 29.3 µM (active) with H4 and 8.85 µM (active) in assay [2].
On to `CN1/C(=C/C=C(C#N)C#N)C(C)(C)c2ccccc21`, for which the results for the EC50 in [5] and in assay [6] were 248 µM (active) and > 300 µM (inconclusive), respectively.
Consider `CC(C(=O)c1ccccc1)[n+]1cccc(Br)c1` (stereo not drawn), for which the EC50 was > 38 µM (not active) in assay [7] and > 150 µM (inactive) in [8].
For the compound `COc1ccc(N2C(=O)CC(c3ccc([N+](=O)[O-])cc3)C2=O)cc1` (stereo not drawn), the EC50 in assay [3] was > 53 µM (inactive). The IC50 in assay [4] was > 47.1 µM (inactive).
As to `Cn1c(SCc2ccccc2F)nnc1-c1cnccn1`, the EC50 in assay [1] is 0.166 µM (active); in the assay with H4 it was 4.22 µM (active); in assay [2] it was 35.2 µM (active).
`COc1cc(C(=O)NNC(=S)NC(=O)c2ccc(F)cc2)cc(OC)c1OC`: the EC50 in [9] was 3.25 µM (active); in assay [10], 14.9 µM (active); in the assay on Streptococcus it was 15.5 µM (active); in assay [11], 0.791 µM (active); at Streptokinase A it was > 150 µM (not active).
As to `O=C(CSc1ccccc1)N(c1ccc(Br)cc1)c1nccs1`, the EC50 in assay [3] is > 53 µM (inactive). The IC50 in assay [4] is > 47.1 µM (inactive).
For the compound `CNC(=O)c1c(NC(=O)c2ccc(S(=O)(=O)N3CCCCC3C)cc2)sc2c1CCN(C)C2` (stereo not drawn), the EC50 in assay [5] and in assay [6] was > 300 µM (not active) in each case.
As for `COc1ccc(NC(=O)c2ccc(-c3csc(C)n3)cc2)cc1`, the EC50 is 3.97 µM (active) in assay [1], > 120 µM (not active) in the assay with H4 and 1.24 µM (active) in assay [2].
For `COc1cc(NC(=O)CSc2nc3ncnc(N)c3[nH]2)c(C(=O)O)cc1OC`, the EC50 in assay [5] was 29.2 µM (active); in [6] it was 30.3 µM (active).
For `N#CC1=C(N)OC2=C(C(=O)CCC2)C1c1ccccc1` (stereo not drawn), in that order: > 300 µM (not active) and > 300 µM (not active).
Turning to `COc1ccc(C2=NCN(c3ccc(C)cc3)C(S)=N2)cc1`, the EC50 is 6.32 µM (active) in assay [1], 7.4 µM (active) in the assay with H4 and > 120 µM (not active) in assay [2].
The corresponding values for `O=[N+]([O-])c1ccc2c(c1)C(O)n1nc(-c3ccccc3)nc1S2` (stereo not drawn) are > 120 µM (not active), > 120 µM (not active) and > 120 µM (not active).
Turning to `O=C(NCC1CCCO1)C(c1ccc(F)cc1)N(Cc1ccc(F)cc1)C(=O)Cn1nnc(-c2cccs2)n1` (stereo not drawn), the EC50 in assay [7] is > 38 µM (not active); in assay [8], > 160 µM (inactive).
As for `COC(=O)c1cc(C)sc1NC(=O)c1cccnc1`, the values for the EC50 in assay [7] and in assay [8] were > 38 µM (not active) and 62.4 µM (active), respectively.
For `CCn1c(=O)n(CC(=O)N2CCN(c3ccccc3F)CC2)c(=O)c2ccccc21`, in that order: > 38 µM (not active) and > 160 µM (inactive).
As to `CCSc1nc2ccccc2n1CC(=O)N1CCCCC1`, the EC50 in assay [3] is > 53 µM (inactive). For the same compound, the IC50 in assay [4] is > 47.1 µM (inactive).
Take `COc1ccccc1N1CCN(Cc2c(F)cccc2Cl)CC1`: the EC50 in [3] is > 53 µM (inactive). Further, in assay [4], the IC50 is > 47.1 µM (inactive).
For `CCOc1ccc(/C=C(\C#N)C(=O)NC2CC2)c(OCC)c1`, in that order: > 53 µM (inactive) and > 47.1 µM (inactive).
With `CC(C)NC(=O)CN1C(=O)CSc2ccc(S(=O)(=O)N3CCCC3)cc21`, the EC50 in assay [3] was > 53 µM (inactive). Moreover, the IC50 in assay [4] was > 47.1 µM (inactive).
`COc1cc(OC)cc(C(=O)Nc2ccc(S(=O)(=O)Nc3cnc4ccccc4n3)cc2)c1`: in assay [3], the EC50 was > 53 µM (inactive). Besides, the IC50 in [4] is > 47.1 µM (inactive).
For `O=[N+]([O-])c1cccc(/C=N/NC2=NCCCCC2)c1`, in that order: > 53 µM (inactive) and > 47.1 µM (inactive).
